According to article PMC10758781 (Heliyon, 2023):
Where two headings read alike, the source gives them in different places. *1 amine or outer side, *2 acyl side, *3 side chain or, on linkers, in order; H or OH if unused. Where a SMILES comes first, the peptide text is derived from it. Bridges are numbered along the chain shown (N, C = ends). Roman numbers before positions name the chains, in order. [ ]: non-standard residue; d: D form. Actinocin(9to1) = Cc1c2oc3c(C)ccc(C(=O)[*:1])c3nc-2c(C(=O)[*:2])c(N)c1=O; NMeV = CN[C@H](C(=O)O)C(C)C; Sar = CNCC(=O)O

How the values were obtained:
ERβ [1] = biological target: T1, ERβ (Homo sapiens, UniProt Q92731); assay type: cell-based; conditions: for effect on array size and dsRED2 features (in words): EPA45 library, 6-point dose-response; for activity in GFP-ERβ:PRL-HeLa, EPA45 batch received: first batch of EPA45 chemicals
ERβ [2] = biological target: T1, ERβ; assay type: cell-based; conditions: for decrease of E2-induced stimulation of dsRED2 mRNA / decrease of basal dsRED2 mRNA transcription: 2-h, 4HT, ICI, PHTTP 1 μM, ActD 1 μg/ml, Flavo 100 nM; for decrease of E2-induced stimulation of dsRED2 mRNA: plus E2 10 nM; for decrease of basal dsRED2 mRNA transcription: without E2
zERα = biological target: T2, zERα (Danio rerio, UniProt P57717); assay type: in vivo, zebrafish; conditions: 3 dpf
T2 sequence (P57717 1-569): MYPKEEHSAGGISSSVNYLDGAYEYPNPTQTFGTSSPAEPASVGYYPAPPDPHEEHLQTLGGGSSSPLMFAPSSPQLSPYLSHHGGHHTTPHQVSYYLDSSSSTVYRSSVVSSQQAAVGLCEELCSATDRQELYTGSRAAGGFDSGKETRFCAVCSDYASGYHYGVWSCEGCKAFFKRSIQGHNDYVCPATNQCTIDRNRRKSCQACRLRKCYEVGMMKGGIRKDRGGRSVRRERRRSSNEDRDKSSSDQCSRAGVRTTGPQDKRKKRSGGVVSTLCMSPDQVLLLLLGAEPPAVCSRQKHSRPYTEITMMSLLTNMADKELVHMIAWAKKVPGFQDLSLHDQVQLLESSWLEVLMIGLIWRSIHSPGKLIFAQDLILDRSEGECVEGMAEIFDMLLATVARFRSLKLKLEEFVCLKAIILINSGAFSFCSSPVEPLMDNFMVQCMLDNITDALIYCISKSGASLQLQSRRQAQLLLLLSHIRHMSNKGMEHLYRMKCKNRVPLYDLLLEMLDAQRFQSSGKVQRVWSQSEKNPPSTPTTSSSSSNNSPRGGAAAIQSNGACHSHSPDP

zERβ2 = assay type: in vivo, zebrafish; conditions: 3 dpf; for Liver GFP signal, number of zebrafish: total fish in next column
[3] = system: zebrafish ERs (zERα, zERβ1, and zERβ2); assay type: in vivo; conditions: 3 dpf
zebrafish = conditions: 3 dpf; for Toxicity, number of zebrafish: total fish in next column
ERβ LBD = ERβ LBD only, without NLS; ref ToxCast [23]; cited from earlier work
[4] = system: zebrafish ERs (zERα, zERβ1, and zERβ2); conditions: read-out: EC50 in ERE:GFP zebrafish; previously published results; ref [36],[37]; cited from earlier work
[5] = time course, E2 10 nM, 4HT 100 nM
[6] = both concentrations tested (2 and 20 μM)

T1 sequence (Q92731 whole entry): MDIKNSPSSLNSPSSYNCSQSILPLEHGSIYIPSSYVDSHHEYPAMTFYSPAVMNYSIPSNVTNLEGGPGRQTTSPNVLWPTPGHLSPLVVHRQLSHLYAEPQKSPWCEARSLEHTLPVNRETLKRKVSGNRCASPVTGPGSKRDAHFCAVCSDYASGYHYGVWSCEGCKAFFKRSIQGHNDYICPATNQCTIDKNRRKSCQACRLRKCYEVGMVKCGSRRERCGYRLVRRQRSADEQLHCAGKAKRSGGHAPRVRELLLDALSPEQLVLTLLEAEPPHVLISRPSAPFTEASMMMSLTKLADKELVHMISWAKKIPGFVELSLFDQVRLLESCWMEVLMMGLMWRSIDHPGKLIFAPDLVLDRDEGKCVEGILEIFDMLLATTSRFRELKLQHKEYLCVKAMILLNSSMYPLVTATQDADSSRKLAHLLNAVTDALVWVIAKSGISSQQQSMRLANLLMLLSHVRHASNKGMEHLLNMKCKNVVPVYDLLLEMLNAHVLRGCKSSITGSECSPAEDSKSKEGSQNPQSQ

CC/C(=C(\c1ccc(O)cc1)c1ccc(OCCN(C)C)cc1)c1ccccc1 [4HT, 4-Hydroxytamoxifen]
Z-prime, Array Size (ERβ [1]; 384 well plates, four technical and four biological replicates): 0.61 ± 0.13 | change in array size vs DMSO (in words) (ERβ [1]; [5]): decreasing it | change in nuclear GFP-ERβ levels (in words) (ERβ [1]; [5]): increase in GFP-ERβ signal within the nucleus | decrease of E2-induced stimulation of dsRED2 mRNA (ERβ [2]): > 2 fold | decrease of basal dsRED2 mRNA transcription (ERβ [2]): > 2 fold | intensity of dsRED2 RNA signal at the array (in words) (ERβ [2]; 4HT 100 nM, vs DMSO): diminishing significantly

C[C@]12C[C@H](O)[C@H]3[C@@H](CCC4=CC(=O)CC[C@@]43C)[C@@H]1CC[C@@H]2C(=O)CO [Corticosterone]
effect on array size and dsRED2 features (in words) (ERβ [1]; 2-h): showed response in both features | Heart (zERα/hERβ), zebrafish with GFP signal / total (zERα; 2 μM): 18/18 | Heart (zERα/hERβ), zebrafish with GFP signal / total (zERα; 20 μM): 16/18 | Liver (zERβ/hERα), zebrafish with GFP signal / total (zERβ2; 2 μM): 18/18 | Liver (zERβ/hERα), zebrafish with GFP signal / total (zERβ2; 20 μM): 16/18 | tissue GFP signal (in words) [3, 6]: showed GFP signal in both the liver and heart valve | Dead/Abnormal zebrafish / total (zebrafish; 2 μM): 0/18 | Dead/Abnormal zebrafish / total (zebrafish; 20 μM): 2/18 | activity in BiFC ERβ dimerization assay (ERβ LBD): no effect

C[C@@H]1C[C@@H]([C@H](O)CC2CC(=O)NC(=O)C2)C(=O)[C@@H](C)C1 [Cycloheximide]
effect on array size and dsRED2 features (in words) (ERβ [1]; 2-h): showed response in both features | Liver (zERβ/hERα), zebrafish with GFP signal / total (zERβ2; 2 μM): 0/18 | Liver (zERβ/hERα), zebrafish with GFP signal / total (zERβ2; 20 μM): 1/18 | Dead/Abnormal zebrafish / total (zebrafish; 2 μM): 0/18 | Dead/Abnormal zebrafish / total (zebrafish; 20 μM): 8/18 | toxicity in zebrafish (in words) (zebrafish; 2 and 20 μM): mostly toxic | activity in BiFC ERβ dimerization assay (ERβ LBD): no effect

C[C@]12CC[C@@H]3c4ccc(O)cc4CC[C@H]3[C@@H]1CC[C@@H]2O [E2, Estradiol (17-β)]
increase of intensity of dsRED2 RNA signal at the array (ERβ [2]; E2 10 nM, vs DMSO): ~3 fold | Liver GFP signal, number of zebrafish (zERβ2; 1 nM): 0 | Liver GFP signal, number of zebrafish (zERβ2; 10 nM): 10 | Liver GFP signal, number of zebrafish (zERβ2; 100 nM): 12 | lowest concentration inducing GFP signal in both heart valve and liver [3]: 10 nM | Toxicity, number of zebrafish (zebrafish; 1 nM): 0 | Toxicity, number of zebrafish (zebrafish; 10 nM): 0 | Toxicity, number of zebrafish (zebrafish; 100 nM): 0 | EC50 [4]: 3 to 5 nM

C[C@]12CC[C@@H]3c4ccc(O)cc4C[C@@H](CCCCCCCCC[S+]([O-])CCCC(F)(F)C(F)(F)F)[C@H]3[C@@H]1CC[C@@H]2O (some centres unmarked) [ICI182,780, ICI 182,780]
decrease of E2-induced stimulation of dsRED2 mRNA (ERβ [2]): > 2 fold | decrease of basal dsRED2 mRNA transcription (ERβ [2]): > 2 fold

O=c1c(O)c(-c2ccc(O)cc2)oc2cc(O)cc(O)c12 [Kaempferol]
Liver (zERβ/hERα), zebrafish with GFP signal / total (zERβ2; 2 μM): 0/18 | Liver (zERβ/hERα), zebrafish with GFP signal / total (zERβ2; 20 μM): 0/18 | Dead/Abnormal zebrafish / total (zebrafish; 2 μM): 0/18 | Dead/Abnormal zebrafish / total (zebrafish; 20 μM): 0/18

O=C1C2(Cl)C3(Cl)C4(Cl)C(Cl)(Cl)C5(Cl)C3(Cl)C1(Cl)C5(Cl)C24Cl (centres unmarked) [Kepone]
Liver (zERβ/hERα), zebrafish with GFP signal / total (zERβ2; 2 μM): 0/18 | Liver (zERβ/hERα), zebrafish with GFP signal / total (zERβ2; 20 μM): 0/18 | Dead/Abnormal zebrafish / total (zebrafish; 2 μM): 0/18 | Dead/Abnormal zebrafish / total (zebrafish; 20 μM): 0/18

Oc1ccc(-c2c(-c3ccccc3)nn3c(C(F)(F)F)cc(C(F)(F)F)nc23)cc1 [PHTTP, 4-[2-phenyl-5,7-bis(trifluoromethyl)pyrazolo[1,5-a]pyrimidin-3-yl]phenol]
ER subtype preference across array metrics (ERβ [1]; GFP-ERβ:PRL-HeLa vs GFP-ERα:PRL-HeLa, 2-h, 10pM to 1 μM): preference for ERβ | decrease of E2-induced stimulation of dsRED2 mRNA (ERβ [2]): > 2 fold | decrease of basal dsRED2 mRNA transcription (ERβ [2]): > 2 fold

CCC1(c2ccccc2)C(=O)NC(=O)NC1=O [Phenobarbital sodium]
effect on array size and dsRED2 features (in words) (ERβ [1]; 2-h): showed response in both features | Heart (zERα/hERβ), zebrafish with GFP signal / total (zERα; 2 μM): 17/18 | Heart (zERα/hERβ), zebrafish with GFP signal / total (zERα; 20 μM): 14/18 | Liver (zERβ/hERα), zebrafish with GFP signal / total (zERβ2; 2 μM): 16/18 | Liver (zERβ/hERα), zebrafish with GFP signal / total (zERβ2; 20 μM): 16/18 | tissue GFP signal (in words) [3, 6]: showed GFP signal in both the liver and heart valve | Dead/Abnormal zebrafish / total (zebrafish; 2 μM): 1/18 | Dead/Abnormal zebrafish / total (zebrafish; 20 μM): 1/18 | activity in BiFC ERβ dimerization assay (ERβ LBD): no effect

Cc1c2oc3c(C)ccc(C(=O)N[C@@H]4C(=O)N[C@H](C(C)C)C(=O)N5CCC[C@H]5C(=O)N(C)CC(=O)N(C)[C@@H](C(C)C)C(=O)O[C@@H]4C)c3nc-2c(C(=O)N[C@@H]2C(=O)N[C@H](C(C)C)C(=O)N3CCC[C@H]3C(=O)N(C)CC(=O)N(C)[C@@H](C(C)C)C(=O)O[C@@H]2C)c(N)c1=O [actinomycin D] (I: T[dV]P[Sar][NMeV] / II: T[dV]P[Sar][NMeV]; ester I:1-I:C, II:1-II:C; linker I:N-II:N via Actinocin(9to1))
decrease of E2-induced stimulation of dsRED2 mRNA (ERβ [2]): > 2 fold | decrease of basal dsRED2 mRNA transcription (ERβ [2]): > 2 fold

CCCCOC(=O)c1ccccc1C(=O)OCc1ccccc1 [benzylbutylphthalate]
activity in BiFC ERβ dimerization assay (ERβ LBD): hits

CC(C)(c1ccc(O)cc1)c1ccc(O)cc1 [bisphenol A]
activity in GFP-ERβ:PRL-HeLa, EPA45 batch received (ERβ [1]; 2-h): inactive | activity in GFP-ERβ:PRL-HeLa, independent batches (ERβ [1]; independent batches of the chemicals): confirmed activity

CCC(C)(c1ccc(O)cc1)c1ccc(O)cc1 [bisphenol B]
activity in GFP-ERβ:PRL-HeLa, EPA45 batch received (ERβ [1]; 2-h): inactive | activation of dsRED2, independent batch (ERβ [2]; independent batch of the chemical): little activation

OC(c1ccc(Cl)cc1)(c1ccc(Cl)cc1)C(Cl)(Cl)Cl [dicofol]
activity in BiFC ERβ dimerization assay (ERβ LBD): hits

CC/C(=C(/CC)c1ccc(O)cc1)c1ccc(O)cc1 [diethylstilbestrol]
activity in GFP-ERβ:PRL-HeLa, EPA45 batch received (ERβ [1]; 2-h): inactive

OC(c1ccc(Cl)cc1)(c1cncnc1)c1ccccc1Cl (centres unmarked) [fenarimol]
activity in BiFC ERβ dimerization assay (ERβ LBD): hits

CN1CC[C@H](c2c(O)cc(O)c3c(=O)cc(-c4ccccc4Cl)oc23)[C@H](O)C1 [flavopirodol]
decrease of E2-induced stimulation of dsRED2 mRNA (ERβ [2]): > 2 fold | decrease of basal dsRED2 mRNA transcription (ERβ [2]): > 2 fold

O=c1c(-c2ccc(O)cc2)coc2cc(O)cc(O)c12 [genistein, Genistein]
Liver GFP signal, number of zebrafish (zERβ2; 1 μM): 0 | Liver GFP signal, number of zebrafish (zERβ2; 10 μM): 12 | Liver GFP signal, number of zebrafish (zERβ2; 100 μM): 6 | tissue GFP signal (in words) ([3]; 1 μM): only heart valve signal | tissue GFP signal (in words) ([3]; 10 μM): heart valve and liver signal | Toxicity, number of zebrafish (zebrafish; 1 μM): 0 | Toxicity, number of zebrafish (zebrafish; 10 μM): 0 | Toxicity, number of zebrafish (zebrafish; 100 μM): 12

COc1ccc(C(c2ccc(OC)cc2)C(Cl)(Cl)Cl)cc1 [methoxychlor]
activity in BiFC ERβ dimerization assay (ERβ LBD): hits
